According to patent US20210122730A1, “GLUCOCORTICOID RECEPTOR MODULATORS” (ORIC Pharmaceuticals, Inc., priority 2017, published 2021):

Assays:
[1] = target: T1, CYP2C8 (Homo sapiens, UniProt P10632); assay: CYP Inhibition Assay (CYP2C8, human liver microsomes, paclitaxel substrate); type: in vitro ADME; settings: pH 7.4; pooled human liver microsomes 0.1 mg/mL, probe substrate paclitaxel
T1 construct: Pooled human microsomes were obtained from Sekisui XenoTech, KS; tissue Sekisui XenoTech, KS; host or cells: pooled human liver microsomes
T1 sequence (P10632 1-490): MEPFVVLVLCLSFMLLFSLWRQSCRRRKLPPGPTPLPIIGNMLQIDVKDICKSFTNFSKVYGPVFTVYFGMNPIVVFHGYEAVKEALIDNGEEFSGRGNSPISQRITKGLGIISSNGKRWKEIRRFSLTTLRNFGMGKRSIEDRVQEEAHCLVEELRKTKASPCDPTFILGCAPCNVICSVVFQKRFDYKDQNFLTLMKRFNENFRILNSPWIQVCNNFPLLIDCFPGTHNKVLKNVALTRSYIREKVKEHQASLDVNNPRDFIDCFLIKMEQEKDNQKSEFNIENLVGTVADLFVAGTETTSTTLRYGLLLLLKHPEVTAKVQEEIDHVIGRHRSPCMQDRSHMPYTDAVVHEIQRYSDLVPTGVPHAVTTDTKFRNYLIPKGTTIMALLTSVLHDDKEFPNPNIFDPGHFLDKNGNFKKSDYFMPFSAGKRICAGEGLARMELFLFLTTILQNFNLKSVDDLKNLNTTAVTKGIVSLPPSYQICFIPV
Summary of the method: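 CYP2C8 activity read as 6α-hydroxypaclitaxel formation by LC-MS/MS, with % inhibition versus vehicle control. Reactions ran 5 min at 37° C, pH 7.4 phosphate buffer, 0.1 mg/mL pooled human liver microsomes, 1 mM NADPH, duplicate wells.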

[2] = target: T2, GR (Homo sapiens, UniProt P04150); assay: In Vitro GR Luciferase Reporter Assay (antagonist mode, CHO-K1-GR-MMTV-Luc reporter cells); type: cell-based; settings: antagonist mode, 10 nM Dexamethasone
T2 construct: expressed in transfected cells; host or cells: CHO-K1
T2 sequence (P04150 1-777): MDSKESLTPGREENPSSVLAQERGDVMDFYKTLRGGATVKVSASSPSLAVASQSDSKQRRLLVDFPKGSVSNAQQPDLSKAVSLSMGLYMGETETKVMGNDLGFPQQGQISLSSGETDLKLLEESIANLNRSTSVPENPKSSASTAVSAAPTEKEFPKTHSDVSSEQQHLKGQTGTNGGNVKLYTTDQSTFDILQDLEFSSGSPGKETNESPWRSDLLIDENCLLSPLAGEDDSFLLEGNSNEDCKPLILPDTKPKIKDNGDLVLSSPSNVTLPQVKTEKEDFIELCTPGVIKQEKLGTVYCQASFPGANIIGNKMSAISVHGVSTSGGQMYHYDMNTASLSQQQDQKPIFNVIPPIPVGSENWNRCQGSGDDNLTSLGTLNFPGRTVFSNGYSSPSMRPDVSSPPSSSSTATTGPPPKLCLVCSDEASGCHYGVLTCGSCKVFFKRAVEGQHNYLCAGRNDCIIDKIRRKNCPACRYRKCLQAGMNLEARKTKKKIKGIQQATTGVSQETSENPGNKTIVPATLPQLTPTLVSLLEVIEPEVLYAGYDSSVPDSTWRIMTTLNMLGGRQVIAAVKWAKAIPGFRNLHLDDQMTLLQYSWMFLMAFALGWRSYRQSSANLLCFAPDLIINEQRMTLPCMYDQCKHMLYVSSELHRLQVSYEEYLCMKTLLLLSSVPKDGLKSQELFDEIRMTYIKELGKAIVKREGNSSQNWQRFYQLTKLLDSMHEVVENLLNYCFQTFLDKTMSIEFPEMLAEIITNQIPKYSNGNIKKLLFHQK
Summary of the method: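 Antagonist mode: compounds (8 serial 1:5 dilutions) added to GR-MMTV-luciferase CHO-K1 reporter cells co-exposed to 10 nM dexamethasone final, in phenol red-free DMEM plus 10% CSS. After roughly 18-24 h at 37° C, OneGlo luminescence read and IC50 calculated.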

SMILES | inhibition at 5 min [1] [%] | IC50 [2] [nM]
Cn1ccc(S(=O)(=O)N(CC(C)(C)O)[C@H]2CCC3=Cc4c(cnn4-c4ccc(F)cc4)C[C@]3(C(=O)c3cc(C(F)(F)F)ccn3)C2)n1 [Example 195, N-((4aS,6S)-1-(4-fluorophenyl)-4a-(4-(trifluoromethyl)picolinoyl)-4,4a,5,6,7,8-hexahydro-1H-benzo[f]indazol-6-yl)-N-(2-hydroxy-2-methylpropyl)-1-methyl-1H-pyrazole-3-sulfonamide] | 25 to 50 | ≤ 100
Cn1ccc(S(=O)(=O)N(C2COC2)[C@H]2CCC3=Cc4c(cnn4-c4ccc(F)cc4)C[C@]3(C(=O)c3ncc(C(F)(F)F)s3)C2)n1 [Example 196, N-((4aS,6S)-1-(4-fluorophenyl)-4a-(5-(trifluoromethyl)thiazole-2-carbonyl)-4,4a,5,6,7,8-hexahydro-1H-benzo[f]indazol-6-yl)-1-methyl-N-(oxetan-3-yl)-1H-pyrazole-3-sulfonamide] | 50 to 75 | ≤ 100
Cn1ccc(S(=O)(=O)N(C2COC2)[C@H]2CCC3=Cc4c(cnn4-c4ccc(F)cc4)C[C@]3(C(=O)c3cc(C(F)(F)F)ccn3)C2)n1 [Example 198, N-((4aS,6S)-1-(4-fluorophenyl)-4a-(4-(trifluoromethyl)picolinoyl)-4,4a,5,6,7,8-hexahydro-1H-benzo[f]indazol-6-yl)-1-methyl-N-(oxetan-3-yl)-1H-pyrazole-3-sulfonamide] | 25 to 50 | ≤ 100
CCN([C@H]1CCC2=Cc3c(cnn3-c3ccc(F)cc3)C[C@]2(C(=O)c2ncc(C(F)(F)F)s2)C1)S(=O)(=O)c1ccn(C)n1 [Example 199, N-ethyl-N-((4aS,6S)-1-(4-fluorophenyl)-4a-(5-(trifluoromethyl)thiazole-2-carbonyl)-4,4a,5,6,7,8-hexahydro-1H-benzo[f]indazol-6-yl)-1-methyl-1H-pyrazole-3-sulfonamide] | 75 to 90 | ≤ 100
Cn1cnc(S(=O)(=O)N(C2CC2)[C@H]2CCC3=Cc4c(cnn4-c4ccc(F)cc4)C[C@]3(C(=O)c3ncc(C(F)(F)F)s3)C2)c1 [Example 201, N-cyclopropyl-N-((4aS,6S)-1-(4-fluorophenyl)-4a-(5 (trifluoromethyl)thiazole-2-carbonyl)-4,4a,5,6,7,8-hexahydro-1H-benzo[f]indazol-6-yl)-1-methyl-1H-imidazole-4-sulfonamide] | ≤ 25 | ≤ 100
Cn1cc(S(=O)(=O)[C@@]2(F)CCC3=Cc4c(cnn4-c4ccc(F)cc4)C[C@]3(C(=O)c3cc(C(F)(F)F)ccn3)C2)cn1 [Example 202, ((4aS,6S)-6-fluoro-1-(4-fluorophenyl)-6-((1-methyl-1H-pyrazol-4-yl)sulfonyl)-1,4,5,6,7,8-hexahydro-4aH-benzo[f]indazol-4a-yl)(4-(trifluoromethyl)pyridin-2-yl)methanone] | 25 to 50 | ≤ 100
Cn1ccc(S(=O)(=O)N(C2CCC2)[C@H]2CCC3=Cc4c(cnn4-c4ccc(F)cc4)C[C@]3(C(=O)c3ncc(C(F)(F)F)s3)C2)n1 [Example 203, N-cyclobutyl-N-((4aS,6S)-1-(4-fluorophenyl)-4a-(5 (trifluoromethyl)thiazole-2-carbonyl)-4,4a,5,6,7,8-hexahydro-1H-benzo[f]indazol-6-yl)-1-methyl-1H-pyrazole-3-sulfonamide] | 25 to 50 | ≤ 100
O=C(c1cc(C(F)(F)F)ccn1)[C@]12Cc3cnn(-c4ccc(F)cc4)c3C=C1CC[C@H](N(C1COC1)S(=O)(=O)c1ccc(F)cc1)C2 [Example 204, 4-fluoro-N-((4aS,6S)-1-(4-fluorophenyl)-4a-(4-(trifluoromethyl)picolinoyl)-4,4a,5,6,7,8-hexahydro-1H-benzo[f]indazol-6-yl)-N-(oxetan-3-yl)benzenesulfonamide] | 25 to 50 | ≤ 100
